{"source": "ChEMBL document CHEMBL4665629", "about": "“An optimised series of substituted N-phenylpyrrolamides as DNA gyrase B inhibitors” (Eur J Med Chem, 2019)", "key": {"Staphylococcus aureus [1]": {"system": "Staphylococcus aureus", "experiment": "Antibacterial activity against […] Staphylococcus aureus ATCC 25923 assessed as minimum inhibitory concentration required for >=90% inhibition of bacterial growth by CLSI protocol based broth microdilution assay", "format": "functional"}, "Klebsiella pneumoniae [2]": {"system": "Klebsiella pneumoniae", "experiment": "Antibacterial activity against wild type Klebsiella pneumoniae ATCC 10031 harboring GyrA S83F mutant assessed as minimum inhibitory concentration required for >=90% inhibition of bacterial growth in presence of 10 ug/ml phenylalanine-arginine beta-naphthamide", "format": "functional"}, "Shigella flexneri": {"system": "Shigella flexneri", "experiment": "Antibacterial activity against Shigella flexneri HNCMB 20018 assessed as minimum inhibitory concentration required for >=90% inhibition of bacterial growth in presence of phenylalanine-arginine beta-naphthylamide by CLSI protocol based broth microdilution assay", "format": "functional"}, "Escherichia coli [3]": {"system": "Escherichia coli", "experiment": "Antibacterial activity against Escherichia coli MG1655 assessed as minimum inhibitory concentration required for >=90% inhibition of bacterial growth in presence of phenylalanine-arginine beta-naphthylamide by CLSI protocol based broth microdilution assay", "format": "functional"}, "[4]": {"molecular_target": "DNA gyrase (Staphylococcus aureus) (UniProt P0A0K8+P20831)", "sequence (P0A0K8 2-644 limits assumed)": "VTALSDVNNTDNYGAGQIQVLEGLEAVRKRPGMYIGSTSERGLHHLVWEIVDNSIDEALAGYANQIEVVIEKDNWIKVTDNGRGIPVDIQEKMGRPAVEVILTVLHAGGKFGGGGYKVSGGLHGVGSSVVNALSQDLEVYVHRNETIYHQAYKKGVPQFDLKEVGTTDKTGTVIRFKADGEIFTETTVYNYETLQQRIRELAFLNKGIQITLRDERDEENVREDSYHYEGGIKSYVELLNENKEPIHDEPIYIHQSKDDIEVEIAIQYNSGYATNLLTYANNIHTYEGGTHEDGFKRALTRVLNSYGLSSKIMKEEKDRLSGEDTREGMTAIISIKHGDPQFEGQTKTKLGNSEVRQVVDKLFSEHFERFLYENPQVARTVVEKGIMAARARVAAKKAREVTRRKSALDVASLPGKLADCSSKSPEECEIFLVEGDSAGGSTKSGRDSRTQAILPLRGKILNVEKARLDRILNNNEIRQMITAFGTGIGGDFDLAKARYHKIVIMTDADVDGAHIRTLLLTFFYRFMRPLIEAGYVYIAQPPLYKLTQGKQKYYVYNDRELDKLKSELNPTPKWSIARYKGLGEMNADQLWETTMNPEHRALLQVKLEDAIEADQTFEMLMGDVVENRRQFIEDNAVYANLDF", "sequence (P20831 whole entry partner)": "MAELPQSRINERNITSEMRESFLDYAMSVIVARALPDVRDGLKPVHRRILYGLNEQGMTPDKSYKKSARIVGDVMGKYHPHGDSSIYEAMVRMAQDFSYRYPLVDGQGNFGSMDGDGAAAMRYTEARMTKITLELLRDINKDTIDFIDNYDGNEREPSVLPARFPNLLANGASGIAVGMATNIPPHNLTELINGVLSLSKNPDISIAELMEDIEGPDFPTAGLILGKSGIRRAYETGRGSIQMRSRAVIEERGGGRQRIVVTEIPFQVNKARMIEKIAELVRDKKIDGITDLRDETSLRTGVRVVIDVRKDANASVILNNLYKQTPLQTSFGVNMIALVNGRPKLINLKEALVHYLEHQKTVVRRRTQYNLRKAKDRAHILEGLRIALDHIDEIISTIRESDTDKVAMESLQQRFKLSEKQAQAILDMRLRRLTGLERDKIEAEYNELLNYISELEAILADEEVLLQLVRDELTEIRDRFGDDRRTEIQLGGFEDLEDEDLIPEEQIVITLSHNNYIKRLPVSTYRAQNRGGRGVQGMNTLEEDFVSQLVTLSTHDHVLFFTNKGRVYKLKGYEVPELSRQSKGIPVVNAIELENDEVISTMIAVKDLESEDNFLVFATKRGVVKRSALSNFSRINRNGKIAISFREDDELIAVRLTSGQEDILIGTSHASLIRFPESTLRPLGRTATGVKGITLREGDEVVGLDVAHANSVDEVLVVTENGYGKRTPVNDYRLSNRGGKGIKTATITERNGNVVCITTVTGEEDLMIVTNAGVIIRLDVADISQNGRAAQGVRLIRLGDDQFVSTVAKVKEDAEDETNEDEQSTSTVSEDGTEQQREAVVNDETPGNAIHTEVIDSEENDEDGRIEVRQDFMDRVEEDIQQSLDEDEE", "experiment": "Inhibition of Staphylococcus aureus DNA gyrase assessed as residual activity at 1 uM using biotinylated oligonucleotide as substrate incubated for 30 mins in presence of ATP by fluorescence-based microplate reader assay relative to control", "format": "protein-complex assay"}, "Escherichia coli [5]": {"system": "Escherichia coli", "experiment": "Antibacterial activity against Escherichia coli MG1655 harboring […] mutant assessed as minimum inhibitory concentration required for >=90% inhibition of bacterial growth in presence of 50 ug/ml phenylalanine-arginine beta-naphthylamide", "format": "functional"}, "Staphylococcus aureus [6]": {"system": "Staphylococcus aureus", "experiment": "Antibacterial activity against methicillin-resistant and vancomycin-intermediate Staphylococcus aureus ATCC 700699 assessed as minimum inhibitory concentration required for >=90% inhibition of bacterial growth by CLSI protocol based broth microdilution assay", "format": "functional"}, "Enterococcus faecium [7]": {"system": "Enterococcus faecium", "experiment": "Antibacterial activity against Enterococcus faecium ATCC 35667 assessed as bacterial growth inhibition at 50 uM incubated for 24 hrs by CLSI protocol based broth microdilution assay relative to control", "format": "functional"}, "Klebsiella pneumoniae [8]": {"system": "Klebsiella pneumoniae", "experiment": "Antibacterial activity against wild type Klebsiella pneumoniae ATCC 10031 assessed as minimum inhibitory concentration required for >=90% inhibition of bacterial growth in presence of 10 ug/ml phenylalanine-arginine beta-naphthamide", "format": "functional"}, "Klebsiella pneumoniae [9]": {"system": "Klebsiella pneumoniae", "experiment": "Antibacterial activity against wild type Klebsiella pneumoniae ATCC 10031 harboring GyrA S83F/D87G and ParC S80I mutants assessed as minimum inhibitory concentration required for >=90% inhibition of bacterial growth in presence of 10 ug/ml phenylalanine-arginine beta-naphthamide", "format": "functional"}, "Enterococcus faecium [10]": {"system": "Enterococcus faecium", "experiment": "Antibacterial activity against vancomycin-resistant Enterococcus faecium ATCC 700221 assessed as minimum inhibitory concentration required for >=90% inhibition of bacterial growth by CLSI protocol based broth microdilution assay", "format": "functional"}, "Escherichia coli [11]": {"system": "Escherichia coli", "experiment": "Antibacterial activity against Escherichia coli ATCC 25922 assessed as minimum inhibitory concentration required for >=90% inhibition of bacterial growth by CLSI protocol based broth microdilution assay", "format": "functional"}, "Klebsiella pneumoniae [12]": {"system": "Klebsiella pneumoniae", "experiment": "Antibacterial activity against wild type Klebsiella pneumoniae ATCC 10031 harboring GyrA S83Y mutant assessed as minimum inhibitory concentration required for >=90% inhibition of bacterial growth in presence of 10 ug/ml phenylalanine-arginine beta-naphthamide", "format": "functional"}, "Staphylococcus aureus [13]": {"system": "Staphylococcus aureus", "experiment": "Antibacterial activity against methicillin-resistant Staphylococcus aureus ATCC 43300 assessed as minimum inhibitory concentration required for >=90% inhibition of bacterial growth by CLSI protocol based broth microdilution assay", "format": "functional"}, "Escherichia coli [14]": {"system": "Escherichia coli", "experiment": "Antibacterial activity against Escherichia coli ATCC 25922 assessed as minimum inhibitory concentration required for >=90% inhibition of bacterial growth in presence of phenylalanine-arginine beta-naphthylamide by CLSI protocol based broth microdilution assay", "format": "functional"}, "DNA gyrase [15]": {"molecular_target": "T1, DNA gyrase (Escherichia coli, UniProt P0AES4+P0AES6)", "experiment": "Inhibition of Escherichia coli DNA gyrase assessed as conversion of NADH to NAD+ by ATPase assay", "format": "protein-complex assay"}, "Escherichia coli [16]": {"system": "Escherichia coli", "experiment": "Antibacterial activity against Escherichia coli ATCC 25922 assessed as bacterial growth inhibition at 50 uM incubated for 24 hrs by CLSI protocol based broth microdilution assay relative to control", "format": "functional"}, "Klebsiella pneumoniae [17]": {"system": "Klebsiella pneumoniae", "experiment": "Antibacterial activity against wild type Klebsiella pneumoniae ATCC 10031 harboring GyrA S83L mutant assessed as minimum inhibitory concentration required for >=90% inhibition of bacterial growth in presence of 10 ug/ml phenylalanine-arginine beta-naphthamide", "format": "functional"}, "Klebsiella pneumoniae [18]": {"system": "Klebsiella pneumoniae", "experiment": "Antibacterial activity against Klebsiella pneumoniae ATCC 10031 assessed as minimum inhibitory concentration required for >=90% inhibition of bacterial growth in presence of phenylalanine-arginine beta-naphthylamide by CLSI protocol based broth microdilution assay", "format": "functional"}, "Klebsiella pneumoniae [19]": {"system": "Klebsiella pneumoniae", "experiment": "Antibacterial activity against wild type Klebsiella pneumoniae ATCC 10031 harboring GyrA S83F/D87G and ParC S80I/E84G mutants assessed as minimum inhibitory concentration required for >=90% inhibition of bacterial growth in presence of 10 ug/ml phenylalanine-arginine beta-naphthamide", "format": "functional"}, "Escherichia coli [20]": {"system": "Escherichia coli", "experiment": "Antibacterial activity against efflux pump d effect ive Escherichia coli JW5503 harbouring tolC mutant assessed as bacterial growth inhibition at 50 uM incubated for 24 hrs by CLSI protocol based broth microdilution assay relative to control", "format": "functional"}, "Escherichia coli [21]": {"system": "Escherichia coli", "experiment": "Antibacterial activity against Escherichia coli MG1655 harboring […]/D87N and ParC S80I/E84G mutants assessed as minimum inhibitory concentration required for >=90% inhibition of bacterial growth in presence of 50 ug/ml phenylalanine-arginine beta-naphthylamide", "format": "functional"}, "DNA gyrase [22]": {"molecular_target": "T1, DNA gyrase", "experiment": "Inhibition of Escherichia coli DNA gyrase using biotinylated oligonucleotide as substrate incubated for 30 mins in presence of ATP by fluorescence-based microplate reader assay", "format": "protein-complex assay"}, "Enterococcus faecium [23]": {"system": "Enterococcus faecium", "experiment": "Antibacterial activity against Enterococcus faecium ATCC 35667 assessed as minimum inhibitory concentration required for >=90% inhibition of bacterial growth by CLSI protocol based broth microdilution assay", "format": "functional"}, "Escherichia coli [24]": {"system": "Escherichia coli", "experiment": "Antibacterial activity against Escherichia coli MG1655 harboring […]/D87N mutant assessed as minimum inhibitory concentration required for >=90% inhibition of bacterial growth in presence of 50 ug/ml phenylalanine-arginine beta-naphthylamide", "format": "functional"}, "[25]": {"molecular_target": "Topoisomerase IV (Staphylococcus aureus) (UniProt P0C1U9+P0C1S7)", "experiment": "Inhibition of Staphylococcus aureus DNA topoisomerase 4 assessed as residual activity at 1 uM using biotinylated oligonucleotide as substrate incubated for 30 mins in presence of ATP by fluorescence-based microplate reader assay relative to control", "format": "protein-complex assay"}, "Enterococcus faecalis": {"system": "Enterococcus faecalis", "experiment": "Antibacterial activity against Enterococcus faecalis ATCC 29212 assessed as bacterial growth inhibition at 50 uM incubated for 24 hrs by CLSI protocol based broth microdilution assay relative to control", "format": "functional"}, "Klebsiella aerogenes": {"system": "Klebsiella aerogenes", "experiment": "Antibacterial activity against Enterobacter aerogenes ATCC 13408 assessed as bacterial growth inhibition at 50 uM incubated for 24 hrs by CLSI protocol based broth microdilution assay relative to control", "format": "functional"}, "Acinetobacter baumannii": {"system": "Acinetobacter baumannii", "experiment": "Antibacterial activity against Acinetobacter baumannii ATCC 19606 assessed as bacterial growth inhibition at 50 uM incubated for 24 hrs by CLSI protocol based broth microdilution assay relative to control", "format": "functional", "settings": "ATCC 19606 = CIP 70.34 = JCM 6841"}, "Staphylococcus aureus [26]": {"system": "Staphylococcus aureus", "experiment": "Antibacterial activity against Staphylococcus aureus ATCC 29213 assessed as bacterial growth inhibition at 50 uM incubated for 24 hrs by CLSI protocol based broth microdilution assay relative to control", "format": "functional"}}}
{"compound": "CCn1cc(C(=O)O)c(=O)c2ccc(NC(=O)c3[nH]c(C)c(Cl)c3Cl)cc21", "values": [{"measurement": "MIC", "setting": "Staphylococcus aureus [1]", "value": 2.5, "unit": "µM"}, {"measurement": "MIC", "setting": "Klebsiella pneumoniae [2]", "value": 1.2, "unit": "µM"}, {"measurement": "MIC", "setting": "Shigella flexneri", "value": "> 32", "unit": "µM"}, {"measurement": "MIC", "setting": "Escherichia coli [3]", "value": 2.5, "unit": "µM"}, {"measurement": "Activity", "setting": "[4]", "value": 90, "unit": "%"}, {"measurement": "MIC", "setting": "Escherichia coli [5]", "value": 2.5, "unit": "µM"}, {"measurement": "MIC", "setting": "Staphylococcus aureus [6]", "value": 2.5, "unit": "µM"}, {"measurement": "inhibition at 50 µM", "setting": "Enterococcus faecium [7]", "value": 97, "unit": "%"}, {"measurement": "MIC", "setting": "Klebsiella pneumoniae [8]", "value": 1.2, "unit": "µM"}, {"measurement": "MIC", "setting": "Klebsiella pneumoniae [9]", "value": 1.2, "unit": "µM"}, {"measurement": "MIC", "setting": "Enterococcus faecium [10]", "value": 0.72, "unit": "µM"}, {"measurement": "MIC", "setting": "Escherichia coli [11]", "value": "> 32", "unit": "µM"}, {"measurement": "MIC", "setting": "Klebsiella pneumoniae [12]", "value": 1.2, "unit": "µM"}, {"measurement": "MIC", "setting": "Staphylococcus aureus [13]", "value": 2.5, "unit": "µM"}, {"measurement": "MIC", "setting": "Escherichia coli [14]", "value": 2.3, "unit": "µM"}, {"measurement": "IC50", "setting": "DNA gyrase [15]", "value": 1000, "unit": "nM"}, {"measurement": "inhibition at 50 µM", "setting": "Escherichia coli [16]", "value": 11, "unit": "%"}, {"measurement": "MIC", "setting": "Klebsiella pneumoniae [17]", "value": 1.2, "unit": "µM"}, {"measurement": "MIC", "setting": "Klebsiella pneumoniae [18]", "value": "> 32", "unit": "µM"}, {"measurement": "MIC", "setting": "Klebsiella pneumoniae [19]", "value": 1.2, "unit": "µM"}, {"measurement": "inhibition at 50 µM", "setting": "Escherichia coli [20]", "value": 54, "unit": "%"}, {"measurement": "MIC", "setting": "Escherichia coli [21]", "value": 2.5, "unit": "µM"}, {"measurement": "IC50", "setting": "DNA gyrase [22]", "value": 1400, "unit": "nM"}, {"measurement": "MIC", "setting": "Enterococcus faecium [23]", "value": 1.56, "unit": "µM"}, {"measurement": "MIC", "setting": "Escherichia coli [24]", "value": 2.5, "unit": "µM"}, {"measurement": "Activity", "setting": "[25]", "value": 100, "unit": "%"}, {"measurement": "inhibition at 50 µM", "setting": "Enterococcus faecalis", "value": 99, "unit": "%"}, {"measurement": "inhibition at 50 µM", "setting": "Klebsiella aerogenes", "value": 9, "unit": "%"}, {"measurement": "inhibition at 50 µM", "setting": "Acinetobacter baumannii", "value": 2, "unit": "%"}, {"measurement": "inhibition at 50 µM", "setting": "Staphylococcus aureus [26]", "value": 100, "unit": "%"}]}
